According to patent publication US4690944A, “Homocysteine thiolactone derivatives, process for the preparation thereof and pharmaceutical compositions therefrom” (Chiesi Farmaceutici S.p.A., priority 1985, dated 1987):

Tests used:
[1] = Toxicity after single administration (acute toxicity, oral); conditions: mouse, in vivo, mice, p.o., death-rate after 7 days, read-out: Acute toxicity LD50 approx.
Description: IVA:NMRI (SPF) mice, fasted for 18 hours before treatment with water ad libitum, have been used. The compounds, dissolved or suspended in a 0.2% Tween® 80 aqueous solution, have been administered orally, at constant concentration (10%). According to the death-rate observed after 7 days from treatment, the approximate LD50 values, reported in Table 1, have been interpolated on Probits chart.

[2] = tested on: respiratory tract; test: Mucosecretodynamic activity, "in vivo" fluorescein test; conditions: Mus musculus, po; male mice, p.o., 90 minutes before i.v. fluorescein; excretion increase versus controls
Description: The compounds, dissolved or suspended in 20 ml/kg of a 0.2% Tween® 80 aqueous suspension, were administered orally 90 minutes before the intravenous injection of 1% (5 ml/kg) fluorescein. Animals treated p.o. with the only vehicle were used as a control group. After 30 minutes from the fluorescein injection the animals were killed and subjected to incannulation of the trachea. Then the respiratory tract was washed and the spectrophotometric dosage of the fluorescein was carried out against phosphate buffer on the so collected eluate, suitably diluted with phosphate buffer and centrifugated.
The amount of fluorescein was determined by means of a calibration curve prepared in the same experimental conditions and the excretion expressed as ng/hour/10 g body weight. For each experimental session the percent increases of excretion versus controls were calculated.

[3] = tested on: porcine gastric mucine; test: "In vitro" mucolytic activity (viscoelasticity of porcine gastric mucine); type: biochemical; conditions: 0.2 ml of 10% DMSO solution of compound in 1.8 ml of 6% mucine, 25° C., 30 minutes, 0.075 Hz
Description: Control samples were similarly added with the vehicle only. After incubation at 25° C. for 30 minutes, the analysis of the rheologic characteristics was carried out by means of Contraves Low-Shear 30 sinus viscosimeter endowed with oscillating device for the study of the viscoelasticity. The dynamic measurements of the viscoelasticity were carried out at a single frequency (0.075 Hz), using an appropriate concentrical cylinder measurement system, particularly suited for bronchial mucus (Contraves MS-LS 1-1).
The rheogramm was recorded on X/Y Rikadenki 11T recorder and the […] determination was carried out by means of vectorial calculation.
The percent decreases versus control samples, reported in Table 1, were determined from the means of the values of said parameters (at least 7 replications per sample).

Compound | LD50 at 168 h [1] [mg/kg] | ED50 [2] [mg/kg] | "in vitro" % decrease elasticity (G') [3] [%] | "in vitro" % decrease viscosity (.eta.) [3] [%]
O=C(O)c1ccccc1C(=O)NC1CCSC1=O (centres unmarked) [II, 2-[[N-(tetrahydro-2-oxo-3-thienyl)amino]carbonyl]benzoic acid] | > 4000 | 340 | 23 | 45
O=C1SCCC1NC(=O)C1C2C=CC(C2)C1C(=O)O (centres unmarked) [IV, 3-[[N-(Tetrahydro-2-oxo-3-thienyl)amino]-carbonyl]bicyclo[2,2,1]-ept-5-ene-2-carboxylic acid] | > 4000 | 25 | 32 | 43
CC(=O)N[C@@H](CS)C(=O)O [N-acetyl-L-cysteine, N--acetyl-L-cysteine, reference compound] | 4400 | 1300 | 39 | 53
NC(CSCC(=O)O)C(=O)O (centres unmarked) [S-carboxymethyl-cysteine, S--carboxymethyl-cysteine, reference compound] | > 4000 | 1900 |  | 
